Reference: US11939314B2, “Quinolin-2-one derivatives” (MERCK PATENT GMBH, priority 2016, dated 2024)

Tests used:
[1] = biological target: T1, c-Kit(V654A) (Homo sapiens, UniProt P10721, V654A); test: c-Kit(V654A) assay; format: biochemical; settings: recombinant human c-Kit aa 544-end, 200 μM ATP, 1.4E-06 means 1.4×10^−6, read-out: Inhibition (IC50) of c-KIT (V654A)
T1 construct: amino acids 544-end containing the V654A mutation; GST (N)
Protocol: (§1) c-Kit(V654A) (N-terminal GST-tagged, recombinant human c-Kit, amino acids 544-end containing the V654A mutation) is incubated with 8 mM MOPS pH 7.0, 0.2 mM EDTA, 250 μM GGMEDIYEFMGGKKK, 10 mM MgAcetate and [gamma-33P-ATP] (specific activity approx. 500 cpm/pmol, concentration 200 μM). The reaction is initiated by the addition of the MgATP mix. After incubation for 40 minutes at room temperature, the reaction is stopped by the addition of 3% phosphoric acid solution. 10 μL of the reaction is then spotted onto a P30 filtermat and washed three times for 5 minutes in 75 mM phosphoric acid and once in methanol prior to drying and scintillation counting.

[2] = biological target: T2, PDGFRalpha(V561D) (Homo sapiens, UniProt P16234, V561D); test: PDGFRalpha(V561D) assay; format: biochemical; settings: recombinant human PDGFRalpha aa 550-end, 200 μM ATP, 1.4E-06 means 1.4×10^−6, read-out: Inhibition (IC50) of PDGFRα (V561D)
T2 construct: recombinant human PDGFRalpha, amino acids 550end containing the V561 D mutation; 6His (N)
Protocol: as §1, with “PDGFRalpha(V561D)” for “c-Kit(V654A)”, “6His-tagged,” for “GST-tagged,”, “PDGFRalpha,” for “c-Kit,”, “550end” for “544-end”, “V561 D” for “V654A”

T2 sequence (P16234 550-1089 V561D): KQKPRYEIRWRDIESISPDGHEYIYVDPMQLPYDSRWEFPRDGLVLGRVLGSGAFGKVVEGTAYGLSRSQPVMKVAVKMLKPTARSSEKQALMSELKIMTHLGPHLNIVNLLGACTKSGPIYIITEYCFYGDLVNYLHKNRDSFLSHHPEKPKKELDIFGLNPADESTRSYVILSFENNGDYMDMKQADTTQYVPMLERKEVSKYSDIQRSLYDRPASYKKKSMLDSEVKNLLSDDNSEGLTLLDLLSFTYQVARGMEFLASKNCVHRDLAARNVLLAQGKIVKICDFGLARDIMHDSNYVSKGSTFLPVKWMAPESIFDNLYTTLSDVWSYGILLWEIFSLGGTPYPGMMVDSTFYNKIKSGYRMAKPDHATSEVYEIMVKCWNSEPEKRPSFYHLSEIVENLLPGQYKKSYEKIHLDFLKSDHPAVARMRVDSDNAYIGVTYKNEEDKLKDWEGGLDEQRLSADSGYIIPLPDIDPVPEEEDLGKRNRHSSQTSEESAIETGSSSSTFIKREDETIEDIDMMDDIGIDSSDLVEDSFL
T1 sequence (P10721 544-976 V654A): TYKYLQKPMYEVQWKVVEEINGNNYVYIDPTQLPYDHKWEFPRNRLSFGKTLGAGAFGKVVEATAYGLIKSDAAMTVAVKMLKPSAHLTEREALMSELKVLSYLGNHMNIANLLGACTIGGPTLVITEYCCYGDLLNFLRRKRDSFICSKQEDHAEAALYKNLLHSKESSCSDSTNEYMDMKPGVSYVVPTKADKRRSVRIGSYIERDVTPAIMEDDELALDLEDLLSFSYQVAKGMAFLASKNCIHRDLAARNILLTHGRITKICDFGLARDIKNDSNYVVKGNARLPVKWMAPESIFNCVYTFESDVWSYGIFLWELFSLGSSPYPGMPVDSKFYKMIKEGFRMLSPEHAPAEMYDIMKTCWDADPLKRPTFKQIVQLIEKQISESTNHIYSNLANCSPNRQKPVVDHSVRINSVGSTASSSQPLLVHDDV

Structure (SMILES) | IC50 [1] [nM] | IC50 [2] [nM]
NC1CCN(C(=O)c2ccc(-n3cc(-c4cc5cc(F)ccc5[nH]c4=O)nn3)cc2)C1 (stereo in doubt) [A306, 3-{1-[4-((S)-3-amino-pyrrolidine-1-carbonyl)-phenyl]-1H-[1,2,3]triazol-4-yl}-6-fluoro-1H-quinolin-2-one] | 45 | 240
CO[C@H]1CC[C@@H](Oc2ccc(-n3cc(-c4cc5cc(F)ccc5[nH]c4=O)nn3)cc2)C1 (stereo in doubt) [A355, 6-Fluoro-3-{1-[4-((trans)-3-methoxy-cyclopentyloxy)-phenyl]-1H-[1,2,3]triazol-4-yl}-1H-quinolin-2-one] | 89 | 1600
CO[C@@H]1CC[C@H](Oc2ccc(-n3cc(-c4cc5cc(Cl)ccc5[nH]c4=O)nn3)cc2)C1 (stereo in doubt) [A356, 6-chloro-3-{1-[4-((1S,3R)-3-methoxy-cyclopentyloxy)-phenyl]-1H-[1,2,3]triazol-4-yl}-1H-quinolin-2-one] | 96 | 150
O=C(c1ccc(-n2cc(-c3cc4cc(F)ccc4[nH]c3=O)nn2)cc1)N1CCOCC1 [A1, 6-fluoro-3-{1-[4-(morpholine-4-carbonyl)-phenyl]-1H-[1,2,3]triazol-4-yl}-1H-quinolin-2-one] | 6 | 2
O=C(c1ccc(-n2cc(-c3cc4ccccc4[nH]c3=O)nn2)cc1)N1CCOCC1 [A2, 3-{1-[4-(morpholine-4-carbonyl)-phenyl]-1H-[1,2,3]triazol-4-yl}-1H-quinolin-2-one] | 51 | 12
O=c1[nH]c2ccccc2cc1-c1cn(-c2ccc(F)cc2)nn1 [A12, 3-[1-(4-fluoro-phenyl)-1H-[1,2,3]triazol-4-yl]-1H-quinolin-2-one] | 69 | 63
O=c1[nH]c2ccccc2cc1-c1cn(-c2ccccc2F)nn1 [A13, 3-[1-(2-fluoro-phenyl)-1H-[1,2,3]triazol-4-yl]-1H-quinolin-2-one] |  | 500
O=c1[nH]c2ccccc2cc1-c1cn(-c2ccc(OCCN3CCCC3)cc2)nn1 [A14, 3-{1-[4-(2-pyrrolidin-1-yl-ethoxy)-phenyl]-1H-[1,2,3]triazol-4-yl}-1H-quinolin-2-one] | 23 | 20
CN1CCC(CNC(=O)c2ccc(-n3cc(-c4cc5ccccc5[nH]c4=O)nn3)cc2)CC1 [A15, N-(1-methyl-piperidin-4-ylmethyl)-4-[4-(2-oxo-1,2-dihydro-quinolin-3-yl)-[1,2,3]triazol-1-yl]-benzamide] | 49 | 47
O=C(NCCN1CCOCC1)c1ccc(-n2cc(-c3cc4ccccc4[nH]c3=O)nn2)cc1 [A21, N-(2-morpholin-4-yl-ethyl)-4-[4-(2-oxo-1,2-dihydro-quinolin-3-yl)-[1,2,3]triazol-1-yl]-benzamide] | 79 | 32
O=C1COCCN1c1ccc(-n2cc(-c3cc4ccccc4[nH]c3=O)nn2)cc1 [A25, 3-{1-[4-(3-oxo-morpholin-4-yl)-phenyl]-1H-[1,2,3]triazol-4-yl}-1H-quinolin-2-one] | 15 | 3
O=c1[nH]c2ccccc2cc1-c1cn(-c2ccc(OCCN3CCOCC3)cc2)nn1 [A26, 3-{1-[4-(2-morpholin-4-yl-ethoxy)-phenyl]-1H-[1,2,3]triazol-4-yl}-1H-quinolin-2-one] | 15 | 10
O=c1[nH]c2ccccc2cc1-c1cn(-c2ccccc2)nn1 [A27, 3-(1-phenyl-1H-[1,2,3]triazol-4-yl)-1H-quinolin-2-one] | 50 | 32
O=c1[nH]c2ccccc2cc1-c1cn(-c2ccc3nc[nH]c3c2)nn1 [A28, 3-[1-(3H-benzimidazol-5-yl)-1H-[1,2,3]triazol-4-yl]-1H-quinolin-2-one] | 36 | 29
O=C(c1ccc(-n2cc(-c3cc4ccccc4[nH]c3=O)cn2)cc1)N1CCNCC1 [A73, 3-{1-[4-(piperazine-1-carbonyl)-phenyl]-1H-pyrazol-4-yl}-1H-quinolin-2-one] |  | 440

The next lines start with the values.

IC50 [1] [nM] | IC50 [2] [nM] | Structure (SMILES)
30 | 200 | COCC1CCCN1C(=O)c1ccc(-n2cc(-c3cc4cc(F)ccc4[nH]c3=O)nn2)cc1 (stereo in doubt) [A198, 6-fluoro-3-{1-[4-((R)-2-methoxymethyl-pyrrolidine-1-carbonyl)-phenyl]-1H-[1,2,3]triazol-4-yl}-1H-quinolin-2-one]
53 | 16 | CN(C)C(=O)c1ccc(-n2cc(-c3cc4cccnc4[nH]c3=O)nn2)cc1 [A3, N,N-dimethyl-4-[4-(2-oxo-1,2-dihydro-[1,8]naphthyridin-3-yl)-[1,2,3]triazol-1-yl]-benzamide]
34 | 19 | CN(C)C(=O)c1ccc(-n2cc(-c3cc4ccccc4[nH]c3=O)nn2)cc1 [A4, N,N-dimethyl-4-[4-(2-oxo-1,2-dihydro-quinolin-3-yl)-[1,2,3]triazol-1-yl]-benzamide]
170 | 14 | O=C(NCCO)c1ccc(-n2cc(-c3cc4cccnc4[nH]c3=O)nn2)cc1 [A8, N-(2-hydroxy-ethyl)-4-[4-(2-oxo-1,2-dihydro-[1,8]naphthyridin-3-yl)-[1,2,3]triazol-1-yl]-benzamide]
760 | 230 | COCCNC(=O)c1ccc(-n2cc(-c3cc4cccnc4[nH]c3=O)nn2)cc1 [A9, N-(2-methoxy-ethyl)-4-[4-(2-oxo-1,2-dihydro-[1,8]naphthyridin-3-yl)-[1,2,3]triazol-1-yl]-benzamide]
82 | 32 | COc1ccc(-n2cc(-c3cc4ccccc4[nH]c3=O)nn2)cc1 [A10, 3-[1-(4-methoxy-phenyl)-1H-[1,2,3]triazol-4-yl]-1H-quinolin-2-one]
220 | 26 | CN(C)C(=O)c1ccc(-n2cc(-c3cc4cc(Cl)cnc4[nH]c3=O)nn2)cc1 [A11, 4-[4-(6-chloro-2-oxo-1,2-dihydro-[1,8]naphthyridin-3-yl)-[1,2,3]triazol-1-yl]-N,N-dimethyl-benzamide]
 | 33 | COc1cnc2[nH]c(=O)c(-c3cn(-c4ccc(C(=O)N(C)C)cc4)nn3)cc2c1 [A16, 4-[4-(6-methoxy-2-oxo-1,2-dihydro-[1,8]naphthyridin-3-yl)-[1,2,3]triazol-1-yl]-N,N-dimethyl-benzamide]
290 | 67 | COC(=O)c1cc(-n2cc(-c3cc4ccccc4[nH]c3=O)nn2)ccn1 [A17, 4-[4-(2-oxo-1,2-dihydro-quinolin-3-yl)-[1,2,3]triazol-1-yl]-pyridine-2-carboxylic acid methyl ester]
15 | 5 | CN(C)C(=O)c1ccc(-n2cc(-c3cc4cc(F)ccc4[nH]c3=O)nn2)cc1 [A18, 4-[4-(6-fluoro-2-oxo-1,2-dihydro-quinolin-3-yl)-[1,2,3]triazol-1-yl]-N,N-dimethyl-benzamide]
38 | 14 | O=C(NCCO)c1ccc(-n2cc(-c3cc4ccccc4[nH]c3=O)nn2)cc1 [A19, N-(2-hydroxy-ethyl)-4-[4-(2-oxo-1,2-dihydro-quinolin-3-yl)-[1,2,3]triazol-1-yl]-benzamide]
27 | 6 | CN1CCC(CNC(=O)c2ccc(-n3cc(-c4cc5cc(F)ccc5[nH]c4=O)nn3)cc2)CC1 [A22, 4-[4-(6-fluoro-2-oxo-1,2-dihydro-quinolin-3-yl)-[1,2,3]triazol-1-yl]-N-(1-methyl-piperidin-4-ylmethyl)-benzamide]
 | 250 | COC(=O)c1cccc(-n2cc(-c3cc4ccccc4[nH]c3=O)nn2)c1 [A23, 3-[4-(2-oxo-1,2-dihydro-quinolin-3-yl)-[1,2,3]triazol-1-yl]-benzoic acid methyl ester]
110 | 26 | COc1cccc(-n2cc(-c3cc4ccccc4[nH]c3=O)nn2)c1 [A24, 3-[1-(3-methoxy-phenyl)-1H-[1,2,3]triazol-4-yl]-1H-quinolin-2-one]
150 | 23 | O=C(c1ccc(-n2cc(-c3cc4ccncc4[nH]c3=O)nn2)cc1)N1CCOCC1 [A29, 3-{1-[4-(morpholine-4-carbonyl)-phenyl]-1H-[1,2,3]triazol-4-yl}-1H-[1,7]naphthyridin-2-one]
2200 | 150 | Cc1ccc2cc(-c3cn(-c4ccc(C(=O)N5CCOCC5)cc4)nn3)c(=O)[nH]c2n1 [A30, 7-methyl-3-{1-[4-(morpholine-4-carbonyl)-phenyl]-1H-[1,2,3]triazol-4-yl}-1H-[1,8]naphthyridin-2-one]
99 | 13 | O=C(c1ccc(-n2cc(-c3cc4cc(F)cnc4[nH]c3=O)nn2)cc1)N1CCOCC1 [A31, 6-fluoro-3-{1-[4-(morpholine-4-carbonyl)-phenyl]-1H-[1,2,3]triazol-4-yl}-1H-[1,8]naphthyridin-2-one]
